Measured values published in publication PMC9594042, “Probing the KRas Switch II Groove by Fluorine NMR Spectroscopy” (ACS Chemical Biology, 2022).
Read-outs that look alike come from different tables or passages of the source.

Tests used:
[1] = biological target: T1, KRas^G12D GDP (Homo sapiens, UniProt P01116, G12D); type: binding; conditions: tested at 60 μM; probe 9 100 µM, protein 2 µM GDP-bound
T1 construct: HRas 1-166 (His-TEV-N; pProEx; ampicillin resistance) and KRas 1-169; His tag with TEV site (N, cleaved yes); made in house; host or cells: E. coli BL21(DE3)

[2] = Aqueous solubility; type: physicochemical
[3] = biological target: T2, KRas^G12D (both nucleotide states) (Homo sapiens, UniProt P01116, G12D); test: 19F CPMG NMR detection of KRas^G12D by probes (normalized integrals I/I0); type: binding; conditions: probe 100 μM, KRas^G12D 6 μM; for sensitivity of detection compared to 3 and 4: 160 ms CPMG; for nucleotide state detected: GDP vs GNP
T2 construct: HRas 1-166 (His-TEV-N; pProEx; ampicillin resistance) and KRas 1-169; His tag with TEV site (N, cleaved yes); made in house; host or cells: E. coli BL21(DE3)
Excerpt: (§1) We then sought to determine whether these SIIG-binders could serve as probe ligands to detect KRas proteins by ^19F NMR spectroscopy. One-dimensional CPMG experiments [90-(τ-180-τ)n], in which a spin–echo with delay τ is looped n times, attenuate signal intensity as a function of the transverse relaxation rate (R2) and total spin echo time (2·τ·n). Prior studies have shown that reversible binding of proteins to fluorine-containing small molecules induces an increase in the observed ^19F R2 at long values of τ, which maximize the exchange contribution to R2.[24],[25] […] Further modifications to the probe structure were required to improve its binding affinity and the sensitivity of the ^19F CPMG NMR assay.
To improve the sensitivity of this method for oncogenic KRas proteins and to explore the relationship between structure and nucleotide-state specificity, we synthesized a series of derivatives of 3 and 4 with varied structure at the aryl ring expected to be buried deepest within the pocket, and these derivatives were evaluated by CPMG NMR spectroscopy against both nucleotide states of KRas^G12D (6 μM; Figure 2A,B). […] Probe 9 relaxed more slowly in the absence of protein (R2,free = 2.4 Hz) than did compounds containing the C-5 hydroxy group (R2,free = 6.3 Hz for 4, 4.4 Hz for 12, and 5.0 Hz for 17), increasing the sensitivity and dynamic range of integral measurements with this probe (Figure S2). Furthermore, probe 9 was confirmed to be a tighter binder to the SIIG of U–^15N KRas^G12D GDP by HSQC NMR compared to 4 (Figure S3).
Figure 2 SAR of SIIG binders enables more sensitive detection of KRas^G12D. (a) Chemical structures of SIIG binders. (b) Normalized integrals (I/I0) from ^19F CPMG NMR spectra (160 ms) of probes (100 μM) with KRas^G12D (6 μM); values are means ± errors propagated from SD (n = 3). (c) Effect of varying KRas^G12D concentration on I/I0; values are means ± errors propagated from SD (n = 3). (d) Effect of varying probe concentration on I/I0; [P]0 = 6 μM for probes 9 and 12, 3 μM for probe 17; individual points shown (n = 3); data fit to eq 1 (SI).
(§2) Preparation of Ras proteins.
(§3) The plasmids for bacterial expression of HRas 1-166 (His-TEV-N; pProEx; ampicillin resistance) and KRas 1-169 (His-TEV-N; pJ411; kanamycin resistance) have been previously published.1 Mutants were obtained by site-directed mutagenesis (Q5, NEB; or Genscript Biotech). BL21(DE3) competent cells were transformed with 1-2 ng of plasmid.
(§4) Cultures for the preparation of natural abundance isotope proteins were grown at 37 °C (A600 0.4 -0.6) in Terrific Broth (Sigma Aldrich), induced (1 mM IPTG), and allowed to express protein overnight at 18 °C. Cultures for the preparation of U -15N proteins were grown and induced in M9 minimal media supplemented with 1 g/L 15NH4Cl (CIL).
(§5) Cells were collected by centrifugation, lysed by sonication (Tris buffer pH 8.0, supplemented with 1 mM PMSF or 1 tablet per 50 ml EDTA-free cOmplete, Roche), and cleared by centrifugation. His -tagged Ras proteins were isolated with Co TALON resin (Takara Bio), the nucl eotide was exchanged to GDP by dialysis (0.5 mM EDTA), the His tag was cleaved with TEV protease, and the protein was purified by anion exchange (Tris buffer pH 8.0, 50 -500 NaCl gradient, HiTrap Q HP, Cytiva) and gel filtration (HEPES storage buffer pH 7.5 , Superdex 75, GE or Cytiva).
(§6) Nucleotide exchange from GDP to GPPNHP (Jena Biosciences) was performed with samples of protein reserved prior to the final gel filtration purification and according to a published procedure comprising EDTA -mediated exchange, desalting, and cleavage of residual GDP with an alkaline phosphatase (CIP or Quick CIP, NEB) 1-4, and then purified by gel filtration. Proteins were concentrated (10k Amicon Ultra, Millipore) to 0.5-1 mM, concentrations were […]
flash frozen in liquid N2 and stored at -80 °C.
Storage buffer: 20 mM HEPES, 150 mM NaCl, 1 mM MgCl2. Titrated to pH 7.5 with NaOH. Storage buffer for U- […]

[4] = biological target: T3, U-15N KRas^G12D GDP 1-169 (Homo sapiens, UniProt P01116, G12D); test: 1H-15N HSQC NMR binding; conditions: six peaks fit to single site binding curve; pH 7.4, 298 K, 10% dmso-d6, 50 µM protein; error is SD of six peaks
T3 construct: HRas 1-166 (His-TEV-N; pProEx; ampicillin resistance) and KRas 1-169; His tag with TEV site (N, cleaved yes); made in house; host or cells: E. coli BL21(DE3)

[5] = biological target: T1, KRas^G12D GDP; test: 19F CPMG NMR probe binding (I/I0 vs probe concentration), GDP state
Excerpt: as §1
(§7) The probe and protein concentrations were varied to determine the dependence on each binding partner. The normalized integrals (I/I0) of the probes decreased exponentially with increasing protein concentrations (Figure 2C, Figure S2C,D). The normalized integrals increased with increasing probe concentrations, and KD values for the probe–protein binding were extracted by fitting the data to eq 1 (Figure 2D, SI).
(§8) All non-linear regressions were performed in Graphpad Prism v9 with data points handled as individual values.
(§9) Constrained constants are noted.
(§10) Integrals (I) from single-point CPMG experiments were calculated by dividing the probe’s absolute integral by the standard’s absolute integral (3-trifluoromethylphenol, 3TFMP) from the same sample. The resulting integral values (I) were averaged (n=3) and then normalized by dividing by the measurement obtained in the absence of protein (I0, n=1 or 3). Errors in I/I 0 and -ln(I/I0) were propagated from the standard devi ations (SD) in I and I 0. In all cases, I and I0 were measured from the same premixed aliquot of probe and 3 -trifluoromethylphenol.
(§11) The KD values of probes were calculated by fitting normalized integrals to equation 1 , where I and I0 are the integrals in the presence and absence of protein, respectively, A is a constant in Hz, t is the total spin-echo time (2·τ·n), and [P]0 and [L]0 are the total concentrations of protein and probe, respectively (constraining [P]0 and t). See the supplementary information for derivation.
(§12) I⁄I = e−A∙t∙[P]0⁄(KD+[L]0) (eq 1) […]
as §2, §3, §4, §5, §6
flash frozen in liquid N2 and stored at -80 °C. […]

[6] = tested on: panel of KRas proteins (G12 and Q61 mutations), GDP and GNP states; test: 19F CPMG NMR detection of a panel of KRas and HRas proteins; type: binding; conditions: probe 100 μM, protein 6 μM, 160 ms CPMG
Description: The closely related protein HRas 1–166 contains only one residue difference within the SIIG binding site (Q95 in HRas vs H95 in KRas). HRas was only weakly detected by this method; however, the results with HRas^Q95H closely matched those obtained with KRas^WT.
Figure 3 ^19F CPMG NMR spectroscopy detects a variety of oncogenic KRas proteins. Normalized integrals (I/I0) from ^19F CPMG NMR spectra (160 ms) of 100 μM 9 (a), 12 (b), or 17 (c) in the presence of 6 μM KRas or HRas proteins; values are means ± errors propagated from the SDs of I and I0 (n = 3).
as §2, §3, §4
Cells were collected by centrifugation, lysed by sonication (Tris buffer pH 8.0, supplemented with 1 mM PMSF or 1 tablet per 50 ml EDTA-free cOmplete, Roche), and cleared by centrifugation. […]
1D 1H (ZGESGP) and 2D 1H-15N fast HSQC (FHSQCCF3GPPH, NS = 8, TDF1 = 256, GARP decoupling) spectra were recorded at 298 K on an 800 MHz Bruker Avance NEO spectrometer equipped with an actively shielded Z-gradient 5 mm TCI cryoprobe (H&F/C/N) using programs from the pulse program library (TopSpin 4.0.8). Spectra were processed and analyzed with Bruker Topspin 4.0 and CCPNMR Analysis v3.5 1H chemical shifts were referenced to 1 mM DSS at 0 ppm; 15N chemical shifts were referenced indirectly with Ξ = 0.101329118. […]

[7] = biological target: KRas^G12D; set-up: method as in PMID 34889605; conditions: cited from earlier work
[8] = biological target: T4, KRas^G12D GDP and KRas^G12D GNP (Homo sapiens, UniProt P01116, G12D); test: Dual-probe (9 and 12 in mixture) 19F CPMG NMR monitoring of both nucleotide states; type: binding; conditions: 6 μM each state
T4 construct: HRas 1-166 (His-TEV-N; pProEx; ampicillin resistance) and KRas 1-169; His tag with TEV site (N, cleaved yes); made in house; host or cells: E. coli BL21(DE3)
Excerpt: (1 picture or pasted object on this page, not shown here)

[9] = biological target: T5, KRas^G12D GNP (Homo sapiens, UniProt P01116, G12D); test: 19F CPMG NMR probe binding (I/I0 vs probe concentration), GNP state
T5 construct: HRas 1-166 (His-TEV-N; pProEx; ampicillin resistance) and KRas 1-169; His tag with TEV site (N, cleaved yes); made in house; host or cells: E. coli BL21(DE3)
Excerpt: as §1, §7, §8, §9, §10, §11, §12, §2
The plasmids for bacterial expression of HRas 1-166 (His-TEV-N; pProEx; ampicillin resistance) and KRas 1-169 (His-TEV-N; pJ411; kanamycin resistance) have been previously published.1 Mutants were obtained by site-directed mutagenesis (Q5, NEB; or Genscript Biotech). BL21(DE3) competent cells were transformed with 1-2 ng of plasmid. […]

[10] = 19F CPMG 160 ms, varying probe concentration, [P]0 = 6 μM for 9 and 12, 3 μM for 17, fit to eq 1, read-out: KD
[11] = non-linear regression eq 1, t=0.16 s, read-out: KD (extracted value, Table S1)
[12] = 19F CPMG 160 ms, varying probe concentration, [P]0 = 6 μM for 12, 3 μM for 17, fit to eq 1, read-out: KD

Row | SMILES | sensitivity of detection compared to 3 and 4 [3] | nucleotide state detected [3] | Kd [5, 10] [µM] | Kd [5, 11] [µM] | detection of oncogenic KRas proteins [6] | other results
1 | C=CC(=O)N1CC2(CC(n3nc(-c4ccc5c(cnn5C)c4)c(-c4c(Cl)c(C)cc5[nH]ncc45)c3C)C2)C1 [JDQ443] | – | – | – | – | – | occupancy of the SIIP of KRas^G12D [1]: did not occupy
2 | C=CC(=O)Nc1cc(Cl)cc(NC(=O)c2cnn(-c3ccc(OC)cc3)c2C(F)(F)F)c1 [compound 2] | – | – | – | – | – | aqueous solubility [2]: very low
3 | NCCNC(=O)COCCOc1ccc(-n2ncc(C(=O)Nc3ccc(O)c(Cl)c3)c2C(F)(F)F)cc1 [compound 9] | increased sensitivity | specifically detected the GDP state | 200 | 204 | most sensitively detected the GDP state of KRas^G12D | Kd [4]: 580 ± 280 µM
4 | C#Cc1c(F)ccc2cc(O)cc(-c3ncc4c(N5CC6CCC(C5)N6)nc(OC[C@@]56CCCN5C[C@H](F)C6)nc4c3F)c12 [MRTX1133] | – | – | – | – | – | Ki ([7]; GDP state): < 1 pM; binding affinity [7]: subpicomolar; nucleotide state occupied ([8]; 9 and 12 50 μM each, MRTX849 60 μM, MRTX1133 in excess 15 μM, KD2 30 μM): occupied both nucleotide states; nucleotide state occupied ([8]; substoichiometric quantities (2, 4, and 6 μM)): selectively occupied the GDP-state
5 | NCCNC(=O)COCCOc1ccc(-n2ncc(C(=O)Nc3cc(O)cc(Cl)c3C3CC3)c2C(F)(F)F)cc1 [compound 14] | increased sensitivity | – | – | – | – | –
6 | Cc1c(Cl)cc(O)cc1NC(=O)c1cnn(-c2ccc(OCCOCC(=O)NCCN)cc2)c1C(F)(F)F [compound 12] | increased sensitivity | detected both nucleotide states with similar sensitivity | 310 | 307 | detected both nucleotide states of all oncogene products tested | Kd [9, 12]: 780 µM; Kd [9, 11]: 778 µM
7 | Cc1c(NC(=O)c2cnn(-c3ccc(OCCOCC(=O)NCCN)cc3)c2C(F)(F)F)ccc(O)c1Cl [compound 15] | increased sensitivity | – | – | – | – | –
8 | NCCNC(=O)COCCOc1ccc(-n2ncc(C(=O)Nc3cc(O)cc4ccccc34)c2C(F)(F)F)cc1 [compound 17] | increased sensitivity | detected both nucleotide states with similar sensitivity | 350 | 352 | detected both nucleotide states of all oncogene products tested | Kd [9, 12]: 390 µM; Kd [9, 11]: 393 µM
